From the supplement of paper PMC8612539
In brackets after ≈: the same amount, converted by molar mass.

System: Histophilus somni
Assay: minimum inhibitory concentration (MIC)
Experimental: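 Broth microdilution MIC (Sensititre BOPO7F bovine plate, CLSI methods) of 19 antimicrobials against field isolates of P. multocida, M. haemolytica, H. somni (deep nasopharyngeal swabs) and E. coli, Enterococcus spp. (rectal swabs) from weaned dairy heifers. Incubation 16-24 h at 35 C. MIC is the lowest concentration preventing visible growth. Values with <= or > lie at the tested range limits. Trimethoprim-sulfamethoxazole is given as the trimethoprim component of a 1:19 mixture.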

CCCN1C[C@H](C)[C@@H](O)[C@](C)(O)[C@@H](CC)OC(=O)[C@H](C)[C@@H](O[C@H]2C[C@@](C)(OC)[C@@H](O)[C@H](C)O2)[C@H](C)[C@@H](O[C@@H]2O[C@H](C)C[C@H](N(C)C)[C@H]2O)[C@](C)(O)C[C@H]1C [Gamithromycin]
Conditions | minimum inhibitory concentration [µg/mL]
isolate (source animal id): 3 | ≤ 1
isolate (source animal id): 4 | ≤ 1
isolate (source animal id): 7 | ≤ 1
isolate (source animal id): 14 | ≤ 1
isolate (source animal id): 15 | ≤ 1
isolate (source animal id): 17 | ≤ 1
isolate (source animal id): 18 | ≤ 1
isolate (source animal id): 20 | ≤ 1
isolate (source animal id): 23 | ≤ 1
isolate (source animal id): 45 | ≤ 1
isolate (source animal id): 53 | ≤ 1
isolate (source animal id): 83 | ≤ 1
isolate (source animal id): 88 | ≤ 1
isolate (source animal id): 92 | ≤ 1
isolate (source animal id): 93 | ≤ 1
isolate (source animal id): 99 | ≤ 1
isolate (source animal id): 100 | ≤ 1
isolate (source animal id): 105 | ≤ 1
isolate (source animal id): 107 | ≤ 1
isolate (source animal id): 108 | ≤ 1
isolate (source animal id): 109 | ≤ 1
isolate (source animal id): 110 | ≤ 1
isolate (source animal id): 117 | ≤ 1
isolate (source animal id): 121 | ≤ 1
isolate (source animal id): 123 | ≤ 1
isolate (source animal id): 124 | ≤ 1
isolate (source animal id): 127 | ≤ 1
isolate (source animal id): 128 | ≤ 1
isolate (source animal id): 130 | 4 (≈ 5.15 µM)
isolate (source animal id): 132 | ≤ 1
isolate (source animal id): 135 | ≤ 1
isolate (source animal id): 140 | ≤ 1
isolate (source animal id): 141 | ≤ 1
isolate (source animal id): 142 | > 8
isolate (source animal id): 144 | ≤ 1
isolate (source animal id): 146 | 4 (≈ 5.15 µM)
isolate (source animal id): 147 | > 8
isolate (source animal id): 151 | ≤ 1
isolate (source animal id): 153 | ≤ 1
isolate (source animal id): 154 | > 8
isolate (source animal id): 156 | > 8
isolate (source animal id): 157 | ≤ 1
isolate (source animal id): 176 | ≤ 1
isolate (source animal id): 183 | ≤ 1
isolate (source animal id): 186 | ≤ 1
isolate (source animal id): 196 | ≤ 1
isolate (source animal id): 198 | ≤ 1
isolate (source animal id): 200 | ≤ 1
isolate (source animal id): 206 | ≤ 1
isolate (source animal id): 208 | ≤ 1
isolate (source animal id): 210 | ≤ 1
isolate (source animal id): 212 | ≤ 1
isolate (source animal id): 215 | ≤ 1
isolate (source animal id): 216 | ≤ 1
isolate (source animal id): 218 | ≤ 1
isolate (source animal id): 219 | ≤ 1
isolate (source animal id): 224 | ≤ 1
isolate (source animal id): 228 | ≤ 1
isolate (source animal id): 230 | ≤ 1
isolate (source animal id): 233 | ≤ 1
isolate (source animal id): 238 | ≤ 1
isolate (source animal id): 239 | ≤ 1
isolate (source animal id): 241 | ≤ 1
isolate (source animal id): 242 | ≤ 1
isolate (source animal id): 243 | ≤ 1
isolate (source animal id): 245 | ≤ 1
isolate (source animal id): 246 | ≤ 1
isolate (source animal id): 247 | ≤ 1
isolate (source animal id): 248 | ≤ 1
isolate (source animal id): 250 | ≤ 1
isolate (source animal id): 251 | ≤ 1
isolate (source animal id): 252 | ≤ 1
isolate (source animal id): 254 | ≤ 1
isolate (source animal id): 258 | ≤ 1
isolate (source animal id): 259 | ≤ 1
isolate (source animal id): 262 | ≤ 1
isolate (source animal id): 264 | ≤ 1
isolate (source animal id): 265 | ≤ 1
isolate (source animal id): 266 | ≤ 1
isolate (source animal id): 267 | ≤ 1
isolate (source animal id): 269 | ≤ 1
isolate (source animal id): 271 | ≤ 1
isolate (source animal id): 272 | ≤ 1
isolate (source animal id): 274 | ≤ 1
isolate (source animal id): 276 | ≤ 1
isolate (source animal id): 278 | ≤ 1
isolate (source animal id): 280 | ≤ 1
isolate (source animal id): 281 | ≤ 1
isolate (source animal id): 283 | ≤ 1
isolate (source animal id): 288 | ≤ 1
isolate (source animal id): 291 | ≤ 1
isolate (source animal id): 292 | ≤ 1
isolate (source animal id): 296 | ≤ 1
isolate (source animal id): 306 | ≤ 1
isolate (source animal id): 336 | ≤ 1
isolate (source animal id): 337 | ≤ 1
isolate (source animal id): 341 | ≤ 1
